# Assays:
# [1] = tested on: Mycobacterium tuberculosis; experiment: microbe, parasite or virus in culture; settings: H37Rv
# physchem [2] = settings: octanol/water, pH 7.4
# Staphylococcus aureus = experiment: microbe, parasite or virus in culture; settings: ATCC 29213
# physchem [3] = settings: octanol/water, pH 5
# physchem [4] = settings: octanol/water, pH 6.5
# Francisella tularensis = experiment: microbe, parasite or virus in culture; settings: Schu S4
# physchem [5] = settings: octanol/water, pH 1.5
# Escherichia coli = experiment: microbe, parasite or virus in culture; settings: ATCC 25922
SMILES,MIC [1] [µg/mL],logD (physchem [2]),MIC (Staphylococcus aureus) [µg/mL],logD (physchem [3]),logD (physchem [4]),MIC (Francisella tularensis) [µg/mL],logD (physchem [5]),MIC (Escherichia coli) [µg/mL]
CO[C@@H]1[C@@H](OC(N)=O)[C@@H](O)[C@H](Oc2ccc3c(O)c(NC(=O)c4cc(CC=C(C)C)c(O)c(CN(C)C(=O)CS(C)(=O)=O)c4)c(=O)oc3c2C)OC1(C)C,> 10,0.6,> 64,1.28,1.15,> 64,1.29,> 64
CO[C@@H]1[C@@H](OC(N)=O)[C@@H](O)[C@H](Oc2ccc3c(O)c(NC(=O)c4cc(CC=C(C)C)c(O)c(CN(C)C(=O)CNC(C)=O)c4)c(=O)oc3c2C)OC1(C)C,2.5,0.67,16,1.32,1.19,> 64,1.33,> 64
CO[C@@H]1[C@@H](OC(N)=O)[C@@H](O)[C@H](Oc2ccc3c(O)c(NC(=O)c4cc(CC=C(C)C)c(O)c(CN(C)C(=O)CCC(=O)O)c4)c(=O)oc3c2C)OC1(C)C,> 10,-1.7,64,0.93,-0.61,> 64,2.25,> 64
CO[C@@H]1[C@@H](OC(N)=O)[C@@H](O)[C@H](Oc2ccc3c(O)c(NC(=O)c4cc(CC=C(C)C)c(O)c(CN(C)C(=O)Cc5nnn[nH]5)c4)c(=O)oc3c2C)OC1(C)C,> 10,-0.35,> 64,1.13,0.24,> 64,1.9,> 64
CO[C@@H]1[C@@H](OC(N)=O)[C@@H](O)[C@H](Oc2ccc3c(O)c(NC(=O)c4cc(CC=C(C)C)c(O)c(CN(C)C(=O)CCCS(N)(=O)=O)c4)c(=O)oc3c2C)OC1(C)C,10,0.62,16,1.27,1.14,> 64,1.27,> 64
CO[C@@H]1[C@@H](OC(N)=O)[C@@H](O)[C@H](Oc2ccc3c(O)c(NC(=O)c4cc(CC=C(C)C)c(O)c(CN(C)C(=O)CN(C)C)c4)c(=O)oc3c2C)OC1(C)C,> 10,1.32,> 64,–,1.15,> 64,-1.18,> 64
CCN(CC)Cc1cc(C(=O)Nc2c(O)c3ccc(O[C@@H]4OC(C)(C)[C@H](OC)[C@@H](OC(N)=O)[C@H]4O)c(C)c3oc2=O)cc(CC=C(C)C)c1O,> 10,1.53,> 64,0.81,1.7,> 64,0.42,> 64
CO[C@@H]1[C@@H](OC(N)=O)[C@@H](O)[C@H](Oc2ccc3c(O)c(NC(=O)c4cc(CC=C(C)C)c(O)c(CN5CCN(CCCN(C)C)CC5)c4)c(=O)oc3c2C)OC1(C)C,> 10,-0.59,> 64,-2.97,-1.32,> 64,-4,> 64
CO[C@@H]1[C@@H](OC(N)=O)[C@@H](O)[C@H](Oc2ccc3c(O)c(NC(=O)c4cc(CC=C(C)C)c(O)c(CN5CCN(c6ncccn6)CC5)c4)c(=O)oc3c2C)OC1(C)C,> 10,2.48,> 64,1.46,2.63,> 64,-0.46,> 64
CO[C@@H]1[C@@H](OC(N)=O)[C@@H](O)[C@H](Oc2ccc3c(O)c(NC(=O)c4cc(CC=C(C)C)c(O)c(CN5CCCC5)c4)c(=O)oc3c2C)OC1(C)C,10,1.39,> 64,0.38,1.34,> 64,0.11,> 64
CO[C@@H]1[C@@H](OC(N)=O)[C@@H](O)[C@H](Oc2ccc3c(O)c(NC(=O)c4cc(CC=C(C)C)c(O)c(CN(C)C(=O)c5ccccc5)c4)c(=O)oc3c2C)OC1(C)C,> 10,3.63,> 64,4.28,4.15,> 64,4.28,> 64
CO[C@@H]1[C@@H](OC(N)=O)[C@@H](O)[C@H](Oc2ccc3c(O)c(NC(=O)c4cc(CC=C(C)C)c(O)c(CN(C)C(=O)C(C)(C)C)c4)c(=O)oc3c2C)OC1(C)C,> 10,3.58,16,4.23,4.1,64,4.23,> 64
CO[C@@H]1[C@@H](OC(N)=O)[C@@H](O)[C@H](Oc2ccc3c(O)c(NC(=O)c4cc(CC=C(C)C)c(O)c(CN(C)C(=O)[C@H](C)OC(C)=O)c4)c(=O)oc3c2C)OC1(C)C,2.5,1.97,16,2.62,2.49,> 64,2.62,> 64
